System: subjects with moderate-to-severe plaque psoriasis
Assay: PSSD symptom and sign scores, Example 2
Type: in vivo, human
Details: for Change from Baseline in PSSD Sign Score, LSMean / Change from Baseline in PSSD Symptom Score, LSMean: MMRM

CC(=O)NCCCC[C@@H]1NC(=O)[C@H](Cc2c[nH]c3c(C)cccc23)NC(=O)[C@H]([C@@H](C)O)NC(=O)[C@H](CC(N)=O)NC(=O)[C@@H](NC(C)=O)C(C)(C)SSC(C)(C)[C@@H](C(=O)N[C@@H](Cc2ccc(OCCN)cc2)C(=O)N[C@@H](Cc2ccc3ccccc3c2)C(=O)NC2(C(=O)N[C@@H](CCC(=O)O)C(=O)N[C@@H](CC(N)=O)C(=O)N[C@@H](Cc3cccnc3)C(=O)N(C)CC(N)=O)CCOCC2)NC1=O [IL-23 receptor antagonist peptide, Ac-[Pen]*-N-T-[W(7-Me)]-[Lys(Ac)]-[Pen]*-Phe[4-(2-aminoethoxy)]-[2-Nal]-[THP]-E-N-[3-Pal]-Sarc-NH2 (*[Pen]-[Pen]* formdisulfidebond)]
Subjects Achieving PSSD Sign Score 0 (%) (Week 16, 25 mg QD, Baseline Sign Score ≥1, N=43): (2.3%) | Subjects Achieving PSSD Symptom Score 0 (%) (Week 16, 25 mg QD, Baseline Symptom Score ≥1, N=43): (16.3%) | Change from Baseline in PSSD Sign Score, LSMean (Week 16, 25 mg QD): −31.7 | Change from Baseline in PSSD Symptom Score, LSMean (Week 16, 25 mg QD): −28.0 | Change from Baseline in PSSD Sign Score, Mean (Week 16, 50 mg QD): −42.7 | Change from Baseline in PSSD Sign Score, Median (Week 16, 50 mg QD): −43.0 | Change from Baseline in PSSD Symptom Score, Mean (Week 16, 50 mg QD): −36.7 | Change from Baseline in PSSD Symptom Score, Median (Week 16, 50 mg QD): −36.0 | Subjects Achieving PSSD Sign Score 0 (%) (Week 16, 50 mg QD, Baseline Sign Score ≥1, N=43): (14.0%) | Subjects Achieving PSSD Symptom Score 0 (%) (Week 16, 50 mg QD, Baseline Symptom Score ≥1, N=42): (23.8%) | Change from Baseline in PSSD Sign Score, LSMean (Week 16, 50 mg QD): −42.9 | Change from Baseline in PSSD Symptom Score, LSMean (Week 16, 50 mg QD): −35.4 | Change from Baseline in PSSD Sign Score, Mean (Week 16, 100 mg BID): −51.1 | Change from Baseline in PSSD Sign Score, Median (Week 16, 100 mg BID): −55.0 | Change from Baseline in PSSD Symptom Score, Mean (Week 16, 100 mg BID): −44.0 | Change from Baseline in PSSD Symptom Score, Median (Week 16, 100 mg BID): −42.0 | Subjects Achieving PSSD Sign Score 0 (%) (Week 16, 100 mg BID, Baseline Sign Score ≥1, N=42): (14.3%) | Subjects Achieving PSSD Symptom Score 0 (%) (Week 16, 100 mg BID, Baseline Symptom Score ≥1, N=42): (26.2%) | Change from Baseline in PSSD Sign Score, LSMean (Week 16, 100 mg BID): −50.6 | Change from Baseline in PSSD Symptom Score, LSMean (Week 16, 100 mg BID): −40.2 | Change from Baseline in PSSD Sign Score, Median (Week 16, 100 mg QD): −45.0 | Change from Baseline in PSSD Symptom Score, Mean (Week 16, 100 mg QD): −29.4 | Change from Baseline in PSSD Symptom Score, Median (Week 16, 100 mg QD): −31.0 | Subjects Achieving PSSD Sign Score 0 (%) (Week 16, 100 mg QD, Baseline Sign Score ≥1, N=43): (16.3%) | Subjects Achieving PSSD Symptom Score 0 (%) (Week 16, 100 mg QD, Baseline Symptom Score ≥1, N=43): (27.9%) | Change from Baseline in PSSD Sign Score, LSMean (Week 16, 100 mg QD): −45.3 | Change from Baseline in PSSD Symptom Score, LSMean (Week 16, 100 mg QD): −36.8 | Change from Baseline in PSSD Sign Score, Mean (Week 24, 25 mg BID): −39.8 | Change from Baseline in PSSD Sign Score, Median (Week 24, 25 mg BID): −41.0 | Change from Baseline in PSSD Symptom Score, Mean (Week 24, 25 mg BID): −33.3 | Change from Baseline in PSSD Symptom Score, Median (Week 24, 25 mg BID): −29.0 | Subjects Achieving PSSD Sign Score 0 (%) (Week 24, 25 mg BID, Baseline Sign Score ≥1, N=41): (4.9%) | Subjects Achieving PSSD Symptom Score 0 (%) (Week 24, 25 mg BID, Baseline Symptom Score ≥1, N=41): (7.3%) | Change from Baseline in PSSD Sign Score, LSMean (Week 24, 25 mg BID): −37.7 | Change from Baseline in PSSD Symptom Score, LSMean (Week 24, 25 mg BID): −32.1 | Change from Baseline in PSSD Sign Score, Mean (Week 24, 25 mg QD): −38.6 | Change from Baseline in PSSD Sign Score, Median (Week 24, 25 mg QD): −44.5 | Change from Baseline in PSSD Symptom Score, Mean (Week 24, 25 mg QD): −32.9 | Change from Baseline in PSSD Symptom Score, Median (Week 24, 25 mg QD): −33.0 | Subjects Achieving PSSD Sign Score 0 (%) (Week 24, 25 mg QD, Baseline Sign Score ≥1, N=43): (14.0%) | Subjects Achieving PSSD Symptom Score 0 (%) (Week 24, 25 mg QD, Baseline Symptom Score ≥1, N=43): (20.9%) | Change from Baseline in PSSD Sign Score, LSMean (Week 24, 25 mg QD): −31.6 | Change from Baseline in PSSD Symptom Score, LSMean (Week 24, 25 mg QD): −25.3 | Change from Baseline in PSSD Sign Score, Mean (Week 24, 50 mg QD): −45.7 | Change from Baseline in PSSD Sign Score, Median (Week 24, 50 mg QD): −47.5 | Change from Baseline in PSSD Symptom Score, Mean (Week 24, 50 mg QD): −38.8 | Change from Baseline in PSSD Symptom Score, Median (Week 24, 50 mg QD): −40.0 | Subjects Achieving PSSD Sign Score 0 (%) (Week 24, 50 mg QD, Baseline Sign Score ≥1, N=43): (9.3%) | Subjects Achieving PSSD Symptom Score 0 (%) (Week 24, 50 mg QD, Baseline Symptom Score ≥1, N=42): (14.3%) | Change from Baseline in PSSD Sign Score, LSMean (Week 24, 50 mg QD): −45.3 | Change from Baseline in PSSD Symptom Score, LSMean (Week 24, 50 mg QD): −36.3 | Change from Baseline in PSSD Sign Score, Mean (Week 24, 100 mg BID): −51.6 | Change from Baseline in PSSD Sign Score, Median (Week 24, 100 mg BID): −53.0 | Change from Baseline in PSSD Symptom Score, Mean (Week 24, 100 mg BID): −44.8 | Change from Baseline in PSSD Symptom Score, Median (Week 24, 100 mg BID): −44.0 | Subjects Achieving PSSD Sign Score 0 (%) (Week 24, 100 mg BID, Baseline Sign Score ≥1, N=42): (19.0%) | Subjects Achieving PSSD Symptom Score 0 (%) (Week 24, 100 mg BID, Baseline Symptom Score ≥1, N=42): (21.4%) | Change from Baseline in PSSD Sign Score, LSMean (Week 24, 100 mg BID): −50.0 | Change from Baseline in PSSD Symptom Score, LSMean (Week 24, 100 mg BID): −40.3 | Change from Baseline in PSSD Sign Score, Mean (Week 24, 100 mg QD): −41.9 | Change from Baseline in PSSD Sign Score, Median (Week 24, 100 mg QD): −44.0 | Change from Baseline in PSSD Symptom Score, Mean (Week 24, 100 mg QD): −28.4 | Change from Baseline in PSSD Symptom Score, Median (Week 24, 100 mg QD): −26.0 | Subjects Achieving PSSD Sign Score 0 (%) (Week 24, 100 mg QD, Baseline Sign Score ≥1, N=43): (11.6%) | Subjects Achieving PSSD Symptom Score 0 (%) (Week 24, 100 mg QD, Baseline Symptom Score ≥1, N=43): (25.6%) | Change from Baseline in PSSD Sign Score, LSMean (Week 24, 100 mg QD): −46.3 | Change from Baseline in PSSD Symptom Score, LSMean (Week 24, 100 mg QD): −36.4 | Change from Baseline in PSSD Sign Score, Mean (Week 24, Placebo → 100 mg QD): −40.2 | Change from Baseline in PSSD Sign Score, Median (Week 24, Placebo → 100 mg QD): −40.0 | Change from Baseline in PSSD Symptom Score, Mean (Week 24, Placebo → 100 mg QD): −26.6 | Change from Baseline in PSSD Symptom Score, Median (Week 24, Placebo → 100 mg QD): −26.0 | Subjects Achieving PSSD Sign Score 0 (%) (Week 24, Placebo → 100 mg QD, Baseline Sign Score ≥1, crossed-over subjects only): (8.6%) | Subjects Achieving PSSD Symptom Score 0 (%) (Week 24, Placebo → 100 mg QD, Baseline Symptom Score ≥1, crossed-over subjects only): (11.4%) | Change from Baseline in PSSD Sign Score, LSMean (Week 24, Placebo → 100 mg QD): −40.3 | Change from Baseline in PSSD Symptom Score, LSMean (Week 24, Placebo → 100 mg QD): −29.2 | Change from Baseline in PSSD Sign Score, Mean (Week 32, 25 mg BID): −38.3 | Change from Baseline in PSSD Sign Score, Median (Week 32, 25 mg BID): −38.0 | Change from Baseline in PSSD Symptom Score, Mean (Week 32, 25 mg BID): −31.0 | Change from Baseline in PSSD Symptom Score, Median (Week 32, 25 mg BID): −28.0 | Subjects Achieving PSSD Sign Score 0 (%) (Week 32, 25 mg BID, Baseline Sign Score ≥1, N=41): (4.9%) | Subjects Achieving PSSD Symptom Score 0 (%) (Week 32, 25 mg BID, Baseline Symptom Score ≥1, N=41): (7.3%) | Change from Baseline in PSSD Sign Score, LSMean (Week 32, 25 mg BID): −38.9 | Change from Baseline in PSSD Symptom Score, LSMean (Week 32, 25 mg BID): −31.4 | Change from Baseline in PSSD Sign Score, Mean (Week 32, 25 mg QD): −37.2 | Change from Baseline in PSSD Sign Score, Median (Week 32, 25 mg QD): −39.0 | Change from Baseline in PSSD Symptom Score, Mean (Week 32, 25 mg QD): −32.5 | Change from Baseline in PSSD Symptom Score, Median (Week 32, 25 mg QD): −32.0 | Subjects Achieving PSSD Sign Score 0 (%) (Week 32, 25 mg QD, Baseline Sign Score ≥1, N=43): (9.3%) | Subjects Achieving PSSD Symptom Score 0 (%) (Week 32, 25 mg QD, Baseline Symptom Score ≥1, N=43): (20.9%) | Change from Baseline in PSSD Sign Score, LSMean (Week 32, 25 mg QD): −31.3 | Change from Baseline in PSSD Symptom Score, LSMean (Week 32, 25 mg QD): −26.2 | Change from Baseline in PSSD Sign Score, Mean (Week 32, 50 mg QD): −39.7 | Change from Baseline in PSSD Sign Score, Median (Week 32, 50 mg QD): −45.0 | Change from Baseline in PSSD Symptom Score, Mean (Week 32, 50 mg QD): −35.9 | Change from Baseline in PSSD Symptom Score, Median (Week 32, 50 mg QD): −32.0 | Subjects Achieving PSSD Sign Score 0 (%) (Week 32, 50 mg QD, Baseline Sign Score ≥1, N=43): (9.3%) | Subjects Achieving PSSD Symptom Score 0 (%) (Week 32, 50 mg QD, Baseline Symptom Score ≥1, N=42): (14.3%) | Change from Baseline in PSSD Sign Score, LSMean (Week 32, 50 mg QD): −39.0 | Change from Baseline in PSSD Symptom Score, LSMean (Week 32, 50 mg QD): −32.9 | Change from Baseline in PSSD Sign Score, Mean (Week 32, 100 mg BID): −52.3 | Change from Baseline in PSSD Sign Score, Median (Week 32, 100 mg BID): −54.0 | Change from Baseline in PSSD Symptom Score, Mean (Week 32, 100 mg BID): −45.5 | Change from Baseline in PSSD Symptom Score, Median (Week 32, 100 mg BID): −47.0 | Subjects Achieving PSSD Sign Score 0 (%) (Week 32, 100 mg BID, Baseline Sign Score ≥1, N=42): (21.4%) | Subjects Achieving PSSD Symptom Score 0 (%) (Week 32, 100 mg BID, Baseline Symptom Score ≥1, N=42): (23.8%) | Change from Baseline in PSSD Sign Score, LSMean (Week 32, 100 mg BID): −51.0 | Change from Baseline in PSSD Symptom Score, LSMean (Week 32, 100 mg BID): −40.9 | Change from Baseline in PSSD Sign Score, Mean (Week 32, 100 mg QD): −42.3 | Change from Baseline in PSSD Sign Score, Median (Week 32, 100 mg QD): −43.0
